Experimental data reported in US20050009787A1, “Micronutrient phosphates as dietary and health supplements” (priority 2001, published 2005).

Key:
[1] = Bioavailability of tocopheryl phosphate in rats (tocopheryl phosphate in liver, ES/MS); format: in vivo, male Sprague-Dawley rats; details: rat
Description: The rats were dosed using the following protocol: • (a) A single dose of the compound was administered to male Sprague-Dawley rats (see Table 1). Oral gavage was with an 18 g gavage needle and 1 ml syringe. Intravenous was with a 26 g hypodermic needle and 1 ml syringe. • (b) Twenty four hours after administrations, the rats were anaesthetized with 60 mg/kg of Nembutal (an anaesthetic from Meril, USA) by intra peritoneal injection. • (c) Once the rats were under deep anaesthesia, a sample of blood was taken from the tail vein, and the femoral vein was exposed and injected with 500 units of heparin. The abdominal cavity was opened and the rat perfused with saline. The liver, heart, epidydimal fat pad, hind-leg muscle and brain was removed and frozen in liquid nitrogen.
The livers were extracted according to the following method: • (a) Homogenise 1 g of liver in 10 ml dichloromethane. • (b) Add 0.1 mg of ditocopheryl phosphate (1 mg/ml in 50% tetrahydrofuran) as an internal standard. • (c) Mix using homogeniser and centrifuge sample. • (d) Remove and evaporate dichloromethane. • (e) Add 9 ml of KOH (2M) and stir for one hour at room temperature. • (f) Add 10 ml hexane, shake and remove hexane (upper) layer. • (g) Add 10 ml HCl (2M) to the 9 ml KOH (2M) solution. • (h) Add 10 ml hexane, shake and remove hexane layer. • (i) Evaporate hexane layer to dryness.
The extracts were analysed and quantitated for TP (μg) content by electrospray mass spectrometry using the established calibration curve (tocopheryl phosphate vs ditocopheryl phosphate).
ES/MS analysis conditions: Sample was dissolved in 1 ml tetrahydrofuran (THF) containing 1% ammonia, 20 μl was injected into the sample loop. The sample was eluted with THF:water (9:1) 20 μl/min. Mass spectrometric analysis was conducted in negative ion mode with cone voltage of 40V using Micromass Platform.

[2] = Stability of tocopheryl phosphate arginine complex in a beverage (pH, turbidity, degradation); format: physicochemical
Description: Four ml was added to each 500 ml bottle using sterile conditions. Three treatment groups were used for each drink: 4° C., 37° C. and room temperature (RT). The drinks were monitored for bacterial growth and contamination on a weekly basis, both visually, and by plating a sample onto LB agar plates, which were grown for 48 hours at 37° C.

[3] = cited from earlier work

CC(=O)Oc1c(C)c(C)c2c(c1C)CCC(C)(CCC[C@H](C)CCC[C@H](C)CCCC(C)C)O2 (some centres unmarked) [Tocopheryl acetate, reference compound]
amount of tocopheryl phosphate present compared to the controls ([1]; oral administration): did not result in a significant increase

Tocopheryl phosphate
amount of tocopheryl phosphate detected in the livers ([1]; enteric coating preparation or oral solution): increase | amount of tocopheryl phosphate present in the liver after 24 hours ([1]; intravenous administration, vs controls): significant increase | Tocopheryl phosphate in liver ([1]; intravenous, 10 mg/kg single dose, 24 h after administration): 24.0 µg/g | Tocopheryl phosphate in liver ([1]; intravenous, 30 mg/kg single dose, 24 h): 28.0 µg/g | Tocopheryl phosphate in liver ([1]; oral (enteric coated), 30 mg/kg single dose, 24 h): 19.3 µg/g | Tocopheryl phosphate in liver ([1]; oral, 10 mg/kg single dose, 24 h): 19.2 µg/g | Tocopheryl phosphate in liver ([1]; oral, 30 mg/kg single dose, 24 h): 18.4 µg/g

tocopheryl phosphate arginine complex
Turbidity ([2]; blue Musashi drink with TP, 4° C.): 12.54 NTU | Turbidity ([2]; blue Musashi drink with TP, 37° C.): 28.55 NTU | Turbidity ([2]; blue Musashi drink with TP, RT): 24.05 NTU | amount of degradation of the complex ([2]; in acidic drinks, at the pH required for biological stability): negligible | Turbidity ([2]; orange Musashi drink with TP, 4° C.): 232.0 NTU | Turbidity ([2]; orange Musashi drink with TP, 37° C.): 220.0 NTU | Turbidity ([2]; orange Musashi drink with TP, RT): 224.0 NTU

COC1=C(OC)C(=O)C(C/C=C(\C)CC/C=C(\C)CC/C=C(\C)CC/C=C(\C)CC/C=C(\C)CC/C=C(\C)CC/C=C(\C)CC/C=C(\C)CC/C=C(\C)CCC=C(C)C)=C(C)C1=O [CoQ10, ubiquinone]
destruction of CoQ10 by boiling ([3]; boiling): no detectable destruction | destruction of CoQ10 by frying ([3]; frying): 14-32%
